Test results from PMC9541094 (Chemistry (Weinheim an der Bergstrasse, Germany), 2022).

Test system: tumor spheroids of MDA-MB-231 cells and murine bone marrow derived macrophages
Assay: 3D co-culture spheroid viability, alamar blue assay
Type: cell-based, human; murine
Conditions: doxorubicin 1.25 μM alone

## COc1cccc2c1C(=O)c1c(O)c3c(c(O)c1C2=O)C[C@@](O)(C(=O)CO)C[C@@H]3O[C@H]1C[C@H](N)[C@H](O)[C@H](C)O1 [doxorubicin]
  3D spheroid viability versus vehicle control: ~100%
